Results as given in ChEMBL document CHEMBL5029160, “An Activity-Based Probe for Cathepsin K Imaging with Excellent Potency and Selectivity” (J Med Chem, 2021).
The source made the active and inactive calls. No cut-off for these calls is given here.

Key:
[1] = molecular target: Procathepsin L (Homo sapiens) (UniProt P07711); assay: Inhibition of human cathepsin L assessed as residual activity using Z-Phe-Arg-pNA as substrate incubated for 60 mins by fluorometric assay; set-up: concentration or dose not given beside the values
[2] = molecular target: T1, Cathepsin K (Homo sapiens) (UniProt P43235); assay: Inhibition of human cathepsin K assessed as ratio of Kinact/Ki using Z-Phe-Arg-pNA as substrate incubated for 60 mins by fluorometric assay
T1 sequence (whole entry): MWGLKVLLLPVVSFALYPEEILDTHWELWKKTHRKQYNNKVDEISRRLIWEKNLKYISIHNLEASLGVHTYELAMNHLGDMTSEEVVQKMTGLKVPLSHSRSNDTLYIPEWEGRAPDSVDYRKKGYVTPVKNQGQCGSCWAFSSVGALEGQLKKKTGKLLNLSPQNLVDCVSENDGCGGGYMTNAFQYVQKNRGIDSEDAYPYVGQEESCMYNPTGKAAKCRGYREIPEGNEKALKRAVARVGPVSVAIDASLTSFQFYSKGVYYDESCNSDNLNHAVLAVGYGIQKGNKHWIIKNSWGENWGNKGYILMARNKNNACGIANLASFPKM

[3] = molecular target: Procathepsin L (Homo sapiens) (UniProt P07711); assay: Inhibition of human cathepsin L assessed as ratio of Kinact/Ki using Z-Phe-Arg-pNA as substrate incubated for 60 mins by fluorometric assay
[4] = molecular target: Cathepsin B (Homo sapiens) (UniProt P07858); assay: Inhibition of human cathepsin B assessed as ratio of Kinact/Ki using Z-Arg-Arg-pNA as substrate incubated for 60 mins by fluorometric assay
[5] = molecular target: Cathepsin S (Homo sapiens) (UniProt P25774); assay: Inhibition of human cathepsin S assessed as residual activity using Z-Phe-Val-Arg-pNA as substrate incubated for 60 mins by fluorometric assay
[6] = molecular target: Cathepsin B (Homo sapiens) (UniProt P07858); assay: Inhibition of human cathepsin B assessed as residual activity using Z-Arg-Arg-pNA as substrate incubated for 60 mins by fluorometric assay; set-up: concentration or dose not given beside the values
[7] = molecular target: Cathepsin S (Homo sapiens) (UniProt P25774); assay: Inhibition of human cathepsin S assessed as ratio of Kinact/Ki using Z-Phe-Val-Arg-pNA as substrate incubated for 60 mins by fluorometric assay
[8] = molecular target: T1, Cathepsin K (Homo sapiens); assay: Binding affinity to recombinant human Cathepsin K at 5 uM pretreated with E64/K11777 pan-cathepsin inhibitor s for 15 mins followed by compound addition and measured after 1 hr by SDS-PAGE; settings: time 75.0 min
[9] = molecular target: T1, Cathepsin K (Homo sapiens); assay: Inhibition of recombinant human Cathepsin K at 5 uM using Z-Phe-Arg-pNA as substrate incubated for 1 hr in presence of HEK293 cell lysate by SDS-PAGE; type: subcellular
[10] = molecular target: T1, Cathepsin K (Homo sapiens); assay: Binding affinity to Cathepsin K in human U2OS cells at 1 uM measured after 4 hrs by SDS-PAGE; type: cell-based
[11] = Drug uptake in human U2OS cells […] at 1 uM after 16 hrs by LysoTracker staining based fluorescence microscopy; type: ADME, subcellular
[12] = molecular target: T1, Cathepsin K (Homo sapiens); assay: Binding affinity to Cathepsin K in human U2OS cells at 1 uM pretreated with E-64d for 1 hr followed by compound addition and measured after 24 hrs by SDS-PAGE; type: cell-based
[13] = molecular target: T1, Cathepsin K (Homo sapiens); assay: Binding affinity to Cathepsin K in human U2OS cells at 1 uM measured after 24 hrs by SDS-PAGE; type: cell-based
[14] = molecular target: T1, Cathepsin K (Homo sapiens); assay: Binding affinity to Cathepsin K in human U2OS cells at 1 uM measured after 16 hrs by SDS-PAGE; type: cell-based

Procathepsin L (Homo sapiens), sequence (P07711 114-333 limits assumed): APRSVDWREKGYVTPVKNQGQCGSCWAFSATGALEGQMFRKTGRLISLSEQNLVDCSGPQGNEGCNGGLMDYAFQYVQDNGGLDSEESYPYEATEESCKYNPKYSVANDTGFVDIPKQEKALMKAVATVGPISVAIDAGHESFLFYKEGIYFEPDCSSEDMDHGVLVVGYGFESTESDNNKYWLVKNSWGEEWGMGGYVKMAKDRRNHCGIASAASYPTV
Cathepsin S (Homo sapiens), sequence (P25774 115-331 limits assumed): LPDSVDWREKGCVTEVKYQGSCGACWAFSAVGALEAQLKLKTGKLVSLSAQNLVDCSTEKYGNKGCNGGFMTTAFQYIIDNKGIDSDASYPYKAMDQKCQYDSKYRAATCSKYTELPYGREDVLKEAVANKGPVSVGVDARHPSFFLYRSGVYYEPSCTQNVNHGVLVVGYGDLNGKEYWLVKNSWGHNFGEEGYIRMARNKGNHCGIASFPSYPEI

Activity [1] | Ratio [2] | Ratio [3] | Ratio [4] | Activity [5] | Activity [6] | Ratio [7] | Activity [8] | inhibition [9] | Activity [10] | Drug uptake [11] | Activity [12] | Activity [13] | Activity [14] | SMILES
89% | 9550 M⁻¹ s⁻¹ | 2820 M⁻¹ s⁻¹ | 365 M⁻¹ s⁻¹ | 80% | 96% | – | – | – | – | – | – | – | – | CC(C)C[C@H](NC(=O)c1cc2cc3c4c(c2oc1=O)CCCN4CCC3)C(=O)NC/C=C/C(=O)N(Cc1ccccc1)Cc1ccccc1
91% | 17900 M⁻¹ s⁻¹ | – | – | – | 96% | 556 M⁻¹ s⁻¹ | – | – | – | – | – | – | – | CCCC[C@H](NC(=O)CCCC[N+]1=C(/C=C/C=C/C=C2/N(C)c3ccccc3C2(C)C)C(C)(C)c2ccccc21)C(=O)N[C@@H](CC(C)C)C(=O)NC/C=C/C(=O)N(Cc1ccccc1)Cc1ccccc1
– | 84200 M⁻¹ s⁻¹ | – | – | – | – | 1510 M⁻¹ s⁻¹ | – | – | – | – | – | – | – | CC(C)C[C@H](NC(=O)c1ccc(-c2cc3cc4c5c(c3oc2=O)CCCN5CCC4)cc1)C(=O)NC/C=C/C(=O)N(Cc1ccccc1)Cc1ccccc1
76% | 6440 M⁻¹ s⁻¹ | – | – | – | 91% | 485 M⁻¹ s⁻¹ | – | – | – | – | – | – | – | CCCC[C@H](NC(=O)OC(C)(C)C)C(=O)N[C@@H](CC(C)C)C(=O)NC/C=C/C(=O)N(Cc1ccccc1)Cc1ccccc1
89% | 35300 M⁻¹ s⁻¹ | – | – | – | 96% | 505 M⁻¹ s⁻¹ | inactive | Active | Active | Active | inactive | Active | Active | CC(C)C[C@H](NC(=O)CCCC[N+]1=C(/C=C/C=C/C=C2/N(C)c3ccccc3C2(C)C)C(C)(C)c2ccccc21)C(=O)NC/C=C/C(=O)N(Cc1ccccc1)Cc1ccccc1.[Cl-]
83% | 10600 M⁻¹ s⁻¹ | – | – | – | 91% | 291 M⁻¹ s⁻¹ | – | – | – | – | – | – | – | CC(C)C[C@H](NC(=O)OC(C)(C)C)C(=O)NC/C=C/C(=O)N(Cc1ccccc1)Cc1ccccc1
